Earlier results, collected in patent US9206100B2, “Route to synthetic analogues of Rocaglamide and Aglafoline using cascade transformations initiated by oxy-cope rearrangement of bis-alkynes” (The Florida State University Research Foundation, Inc., priority 2010, dated 2015).

System: various human leukemia cell lines
Conditions: through the intrinsic death pathway; human leukemia cell lines and ALL, CML and AML cells freshly isolated from patients

COc1ccc([C@@]23Oc4cc(OC)cc(OC)c4[C@]2(O)[C@H](O)[C@H](C(=O)N(C)C)[C@H]3c2ccccc2)cc1 [Rocaglamide]
apoptosis induction: induces apoptosis
